Patent EP0415219A1, “ANF-Antagonist” (F. HOFFMANN-LA ROCHE AG, priority 1989, dated 1991)
Where a SMILES comes first, the peptide text is derived from it. Bridges are numbered along the chain shown (N, C = ends).

Key:
[1] = target: ANF Rezeptor (Membranpräparation von Rindernebennieren); assay: Binding test: displacement of radiolabelled ANF from its receptor (membrane preparation of bovine adrenal glands); set-up: species or system Rind; settings: inhibition of ¹²⁵I-ANF (18,2 pM) binding, 24 h at 4°C; read-out: IC₅₀
Description: In einem Bindungstest nach Bürgisser et al. [Biochem. Biophys. Res. Comm. 133, 1201 (1985)] wurde die Verdrängung von radioaktiv-markiertem ANF von dessen Rezeptor durch den ANF-Antagonisten gemessen. Als Rezeptorpräparation wurde eine Membranpräparation von Rindernebennieren verwendet. Zu 100 µl dieser Präparation in 50 mM Tris/HCl, 500 mM MgCl₂, 1 mM EDTA. 0,5% Rinderserumalbumin und 1 mM o-Phenanthrolin, pH 7,6, wurden ¹²⁵I-ANF (20'000 cpm. 18,2 pM) in 145 µl dieses Puffers und der Ligand in 5 µl Dimethylsulfoxid gegeben. Diese Mischung wurde 24 Stunden bei 4°C inkubiert und gebundenes von freiem ANF durch schnelle Filtration über Whatman GF/C Glasfaserfilter abgetrennt. Nach dreimaligem Waschen der Filter mit obigem Puffer (3 x 4 ml) wurden die Filter zerschnitten und deren Radioaktivität im Gamma-Zähler gemessen. Die Inhibition der Bindung wurde quantitativ mit der IC₅₀ erfasst, worunter diejenige Konzentration an entsprechendem Liganden zu verstehen ist, bei der die Bindung von ¹²⁵I-ANF halbmaximal gehemmt wird. Tabelle

[2] = tested on: spontanhypertensive Ratten (SHR); assay: In vivo blood pressure in conscious SHR under ANF infusion; settings: bolus 1 mg/kg after ANF infusion 2.5 µg/kg/min
Description: (§1) Für die in vivo Versuche wurden 20 Wochen alte spontanhypertensive Ratten (SHR) oder normotensive pathogen-freie (SPF) Ratten verwendet. In wache SHR wurde 2.5 µg/kg/min ANF infundiert, was den Blutdruck um 45 mm Hg senkte. Eine anschliessende Bolusgabe von 1 mg/kg ANF-Antagonist erhöhte den Blutduck wiederum auf den Ausgangswert von 220 mm Hg. Anästhesierten SPF-Ratten ohne zentrale Reflexe ("pithed rats") wurde Angiotensin II (0,15 µg/kg/min) infundiert, um den Blutdruck auf 100-110 mm Hg anzuheben. Dann wurde ein Bolus von 10 µg/kg ANF gegeben. was den Blutdruck um 20 mm Hg senkte. […] Diese Versuche zeigen, dass der Blutdruckanstieg unter dem ANF-Antagonisten nicht auf eine Aktivierung von symphatischen Reflexen, sondern auf die Wirkung eines ANF-Antagonisten zurückzuführen ist.

[3] = tested on: SPF-Ratten ohne zentrale Reflexe ("pithed rats"); assay: In vivo blood pressure in anaesthetised pithed SPF rats under angiotensin II infusion; settings: Angiotensin II 0,15 µg/kg/min, 1 mg/kg i.v. after bolus of 10 µg/kg ANF
Description: as §1

IC50 [1] [nM]	SMILES	Blutdruck nach Bolusgabe (erhöht auf den Ausgangswert) [2] [mm Hg]	Blutdruck nach intravenöser Gabe [3]
2500	CC[C@H](C)[C@@H]1NC(=O)[C@H](Cc2ccccc2)NC(=O)CNC(=O)C[C@@H](C(=O)N[C@H](C(=O)N[C@@H](Cc2ccccc2)C(=O)NCC(=O)N[C@@H](Cc2c[nH]cn2)C(=O)N[C@@H](Cc2ccc(O)cc2)C(=O)N[C@@H](CO)C(=O)NCC(=O)N[C@@H](CC(=O)OC)C(=O)N[C@@H](Cc2ccccc2)C(=O)OC)[C@@H](C)CC)NC(=O)[C@H](CC(N)=O)NC(=O)CNC(=O)[C@H](Cc2c[nH]c3ccccc23)NC(=O)CNC1=O [Dimethylester] (GFIGWGNDIFGHYSGD(OMe)F-OMe; lactam N-8)	–	–
860	CC[C@H](C)[C@@H]1NC(=O)[C@H](Cc2ccccc2)NC(=O)CNC(=O)C[C@@H](C(=O)N[C@H](C(=O)N[C@@H](Cc2ccccc2)C(=O)NCC(=O)N[C@@H](Cc2c[nH]cn2)C(=O)N[C@@H](Cc2ccc(O)cc2)C(=O)N[C@@H](CO)C(=O)NCC(=O)N[C@@H](CC(=O)O)C(=O)N[C@@H](Cc2ccccc2)C(=O)O)[C@@H](C)CC)NC(=O)[C@H](CC(N)=O)NC(=O)CNC(=O)[C@H](Cc2c[nH]c3ccccc23)NC(=O)CNC1=O [ANF-Antagonist] (GFIGWGNDIFGHYSGDF-OH; lactam N-8; C-terminus assumed)	220	erhöhte den Blutdruck wiederum auf den Ausgangswert
